ChEMBL document CHEMBL1649243, “TEM-168, a heretofore laboratory-derived TEM beta-lactamase variant found in an Escherichia coli clinical isolate” (2009)
Converted amounts (≈) assume the structure as drawn.

Key:
Type in all cases: functional
Escherichia coli [1] = assay: Antimicrobial activity against Escherichia coli NO8-1503 harboring blaTEM-168 gene by broth microdilution method
Escherichia coli [2] = assay: Antimicrobial activity against Escherichia coli NO8-1503 harboring blaTEM-168 gene by Etest
Escherichia coli [3] = assay: Antimicrobial activity against Escherichia coli DH10B transformant harboring blaTEM-168 gene by broth microdilution method
Escherichia coli [4] = assay: Antimicrobial activity against Escherichia coli DH10B transformant harboring blaTEM-168 gene by Etest
Escherichia coli [5] = assay: Antimicrobial activity against Escherichia coli NO8-1503 harboring blaTEM-168 gene by Etest in presence of clavulanic acid
Escherichia coli [6] = assay: Antimicrobial activity against Escherichia coli DH10B transformant harboring blaTEM-168 gene by Etest in presence of clavulanic acid
Escherichia coli [7] = assay: Antimicrobial activity against Escherichia coli DH10B by Etest in presence of clavulanic acid
Escherichia coli [8] = assay: Antimicrobial activity against Escherichia coli NO8-1503 harboring blaTEM-168 gene by disk diffusion method
Escherichia coli [9] = assay: Antimicrobial activity against Escherichia coli NO8-1503 harboring blaTEM-168 gene by disk diffusion method in presence of clavulanic acid
Escherichia coli [10] = assay: Antimicrobial activity against Escherichia coli NO8-1503 harboring blaTEM-168 gene by broth microdilution method in presence of clavulanic acid
Escherichia coli [11] = assay: Antimicrobial activity against Escherichia coli DH10B transformant harboring blaTEM-168 gene by disk diffusion method
Escherichia coli [12] = assay: Antimicrobial activity against Escherichia coli DH10B transformant harboring blaTEM-168 gene by disk diffusion method in presence of clavulanic acid
Escherichia coli [13] = assay: Antimicrobial activity against Escherichia coli DH10B by disk diffusion method
Escherichia coli [14] = assay: Antimicrobial activity against Escherichia coli DH10B by disk diffusion method in presence of clavulanic acid
Escherichia coli [15] = assay: Antimicrobial activity against Escherichia coli DH10B by broth microdilution method
Escherichia coli [16] = assay: Antimicrobial activity against Escherichia coli DH10B by broth microdilution method in presence of clavulanic acid
Escherichia coli [17] = assay: Antimicrobial activity against Escherichia coli DH10B by Etest
Escherichia coli [18] = assay: Antimicrobial activity against Escherichia coli DH10B transformant harboring blaTEM-168 gene by broth microdilution method in presence of clavulanic acid
Escherichia coli [19] = assay: Antimicrobial activity against Escherichia coli NO8-1503 harboring blaTEM-168 gene by Etest in presence of Tazobactam
Escherichia coli [20] = assay: Antimicrobial activity against Escherichia coli DH10B transformant harboring blaTEM-168 gene by Etest in presence of Tazobactam
Escherichia coli [21] = assay: Antimicrobial activity against Escherichia coli DH10B by Etest in presence of Tazobactam

Compound | MIC (Escherichia coli [1]) [µg/mL] | MIC (Escherichia coli [2]) [µg/mL] | MIC (Escherichia coli [3]) [µg/mL] | MIC (Escherichia coli [4]) [µg/mL] | MIC (Escherichia coli [5]) [µg/mL] | MIC (Escherichia coli [6]) [µg/mL] | MIC (Escherichia coli [7]) [µg/mL] | inhibition zone (IZ) (Escherichia coli [8]) [mm] | inhibition zone (IZ) (Escherichia coli [9]) [mm] | MIC (Escherichia coli [10]) [µg/mL] | inhibition zone (IZ) (Escherichia coli [11]) [mm] | inhibition zone (IZ) (Escherichia coli [12]) [mm] | inhibition zone (IZ) (Escherichia coli [13]) [mm] | inhibition zone (IZ) (Escherichia coli [14]) [mm] | MIC (Escherichia coli [15]) [µg/mL] | MIC (Escherichia coli [16]) [µg/mL] | MIC (Escherichia coli [17]) [µg/mL] | further results
CO/N=C(\C(=O)N[C@@H]1C(=O)N2C(C(=O)[O-])=C(C[N+]3(C)CCCC3)CS[C@H]12)c1csc(N)n1 | 8 (≈ 16.6 µM) | 2 (≈ 4.16 µM) | 4 (≈ 8.32 µM) | 2 (≈ 4.16 µM) | – | – | – | – | – | – | – | – | – | – | – | – | – | –
CC1(C)S[C@@H]2[C@H](NC(=O)[C@H](N)c3ccc(O)cc3)C(=O)N2[C@H]1C(=O)O [AMOXICILLIN] | – | – | – | – | 32 | 64 | 3 | – | – | – | – | – | – | – | – | – | – | –
CO/N=C(\C(=O)N[C@@H]1C(=O)N2C(C(=O)O)=C(COC(C)=O)CS[C@H]12)c1csc(N)n1 [CEFOTAXIME] | ≤ 0.25 | 0.25 (≈ 0.549 µM) | – | 0.25 (≈ 0.549 µM) | 0.094 | 0.094 | 0.094 | 23 | 24 | ≤ 0.12 | 26 | 30 | 29 | 33 | ≤ 0.25 | ≤ 0.12 | < 0.25 | –
CO[C@@]1(NC(=O)Cc2cccs2)C(=O)N2C(C(=O)O)=C(COC(N)=O)CS[C@@H]21 [CEFOXITIN] | – | 12 (≈ 28.1 µM) | – | 6 (≈ 14 µM) | – | – | – | – | – | – | – | – | – | – | – | – | 8 (≈ 18.7 µM) | –
COCC1=C(C(=O)O)N2C(=O)[C@@H](NC(=O)/C(=N\OC)c3csc(N)n3)[C@H]2SC1 [CEFPODOXIME] | 8 (≈ 18.7 µM) | – | 4 (≈ 9.36 µM) | – | – | – | – | 20 | 15 | 0.5 | 20 | 16 | 27 | 21 | 1 (≈ 2.34 µM) | ≤ 0.125 | – | MIC (Escherichia coli [18]): 0.25 µg/mL
CC(C)(O/N=C(\C(=O)N[C@@H]1C(=O)N2C(C(=O)[O-])=C(C[n+]3ccccc3)CS[C@H]12)c1csc(N)n1)C(=O)O [CEFTAZIDIME] | 4 (≈ 7.32 µM) | 3 (≈ 5.49 µM) | 4 (≈ 7.32 µM) | 3 (≈ 5.49 µM) | 0.75 | 1 | 0.38 | 8 | 11 | 2 | 8 | 10 | 16 | 18 | ≤ 0.25 | 0.25 | 1 (≈ 1.83 µM) | MIC (Escherichia coli [18]): 1 µg/mL
CCN1CCN(C(=O)N[C@@H](C(=O)N[C@@H]2C(=O)N3[C@@H]2SC(C)(C)[C@@H]3C(=O)O)c2ccccc2)C(=O)C1=O [PIPERACILLIN] | – | – | – | – | – | – | – | – | – | – | – | – | – | – | – | – | – | MIC (Escherichia coli [19]): > 256 µg/mL; MIC (Escherichia coli [20]): > 256 µg/mL; MIC (Escherichia coli [21]): 1.5 µg/mL
